According to ChEMBL document CHEMBL1142035:

Biological target: MAP kinase-activated protein kinase 2 (Homo sapiens, UniProt P49137)
Sequence (P49137 whole entry): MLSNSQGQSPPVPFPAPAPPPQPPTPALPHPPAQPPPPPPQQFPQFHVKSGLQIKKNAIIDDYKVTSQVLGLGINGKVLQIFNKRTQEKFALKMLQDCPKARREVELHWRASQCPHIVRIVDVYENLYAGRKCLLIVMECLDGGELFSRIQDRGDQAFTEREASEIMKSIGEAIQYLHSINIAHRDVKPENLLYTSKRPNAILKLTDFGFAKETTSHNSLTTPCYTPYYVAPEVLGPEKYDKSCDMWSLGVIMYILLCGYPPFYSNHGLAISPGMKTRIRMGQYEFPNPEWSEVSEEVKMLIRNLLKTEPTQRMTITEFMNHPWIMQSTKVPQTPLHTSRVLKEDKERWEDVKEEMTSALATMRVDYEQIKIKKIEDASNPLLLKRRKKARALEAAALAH
Description: Concentration of 50% inhibition by compound towards mitogen activated protein kinase -activated protein kinase 2

| SMILES | IC50 |
| --- | --- |
| N#Cc1c(N)nc2c(c1N)Cc1ccccc1S2 | > 200 µM |
| N#Cc1c(N)nc2c(c1N)Cc1ccccc1S2(=O)=O | > 200 µM |
| CCNc1cc2c(c(NCC)c1C#N)Cc1cc(O)c(O)cc1O2 | > 200 µM |
| COc1ccc2c(c1)Oc1cc(N)c(C#N)c(N)c1C2c1ccccc1 (stereo not given) | > 200 µM |
| N#Cc1c(N)cc2c(c1N)C(c1ccccc1)c1ccc(O)cc1O2 (stereo not given) | > 200 µM |
